# Measurements taken from patent US4966973A, “2-substituted coumaran derivatives” (Takeda Chemical Industries, Ltd., priority 1988, dated 1990).
# Target: T1, 5-lipoxygenase (Rattus norvegicus, UniProt P12527)
# T1 construct: endogenous in cells; host or cells: RBL-1 (rat basophilic leukemia) cells
# T1 sequence (P12527 1-673): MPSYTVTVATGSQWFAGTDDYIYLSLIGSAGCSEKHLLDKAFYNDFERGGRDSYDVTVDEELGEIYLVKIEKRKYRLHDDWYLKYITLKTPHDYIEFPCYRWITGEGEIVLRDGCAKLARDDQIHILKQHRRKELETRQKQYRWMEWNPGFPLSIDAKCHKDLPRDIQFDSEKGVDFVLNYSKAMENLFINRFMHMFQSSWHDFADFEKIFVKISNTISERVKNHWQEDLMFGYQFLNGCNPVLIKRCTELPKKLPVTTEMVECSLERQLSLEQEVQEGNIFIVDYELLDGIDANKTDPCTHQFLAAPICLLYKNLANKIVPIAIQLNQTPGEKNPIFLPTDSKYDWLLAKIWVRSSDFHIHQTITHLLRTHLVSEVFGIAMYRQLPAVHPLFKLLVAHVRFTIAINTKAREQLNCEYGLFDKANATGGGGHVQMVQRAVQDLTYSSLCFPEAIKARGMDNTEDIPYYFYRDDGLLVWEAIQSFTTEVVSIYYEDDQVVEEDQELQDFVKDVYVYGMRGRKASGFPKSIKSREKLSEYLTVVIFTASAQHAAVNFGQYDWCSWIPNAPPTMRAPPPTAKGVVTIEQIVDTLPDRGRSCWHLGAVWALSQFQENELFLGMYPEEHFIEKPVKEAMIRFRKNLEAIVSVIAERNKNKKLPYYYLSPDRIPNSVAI
# Test: Effect of Inhibiting 5-Lipoxygenase (inhibition of 5-HETE production in RBL-1 cells, HPLC)
# Format: cell-based
# Conditions: arachidonic acid + A-23187, 37° C., 20 min, read-out: % Inhibition (IE) of 5-HETE production; for inhibition at 10 µM: 10^-5 M; for inhibition at 1 µM: 10^-6 M; for inhibition at 0.1 µM: 10^-7 M; for inhibition at 0.01 µM: 10^-8 M
# Procedure: In 0.5 ml of MCM (mast cell medium) was suspended 10^7 of rat basophilic leukemia (RBL-1) cells. To this suspension was added the test solution previously prepared [consisting of 0.5 ml of MCM, […] of arachidonic acid, 10 μg of calcium ionophore A-23187 and the test compound (final concentrations 10 μM, 1 μM, 0.1 μM and 0.01 μM)], and the reaction was allowed to proceed at 37° C. for 20 minutes. To the reaction mixture was added 4 ml of ethanol, which was shaken sufficiently, followed by leaving the resultant mixture standing for 10 minutes at room temperatures. The resultant mixture was subjected to a centrifuge (2000 rpm) for 10 minutes, then the supernatant was separated. Thus-separated supernatant was concentrated to dryness under reduced pressure. To the concentrate was added 0.5 ml of a 60% aqueous methanol. A 100 μl portion of this solution was taken and subjected to high performance liquid chromatography to determine 5-HETE (5-hydroxyeicosatetraenoic acid) quantitatively. UV absorption of 5-HETE at 237 nm was measured with a UV absorption monitor. The inhibitory effect (IE) of 5-HETE is expressed by (1-b/a) x 100. In this formula, a means the height of the peak or the area of the peak in the case of presence of no compound (I), while b means the height of the peak or the area of the peak in the case of containing the compound (I).
structure (smiles),measurement,value
Cc1c(C)c2c(c(C)c1O)CC(CSCCC(=O)O)O2 (centres unmarked) [Compound 1],inhibition at 10 µM,100%
same,inhibition at 1 µM,100%
same,inhibition at 0.1 µM,64%
same,inhibition at 0.01 µM,13%
Cc1c(C)c2c(c(C)c1O)CC(CSc1ccccc1)O2 (centres unmarked) [Compound 3],inhibition at 10 µM,100%
same,inhibition at 1 µM,100%
same,inhibition at 0.1 µM,100%
same,inhibition at 0.01 µM,42%
CCCCCCCCSCC1Cc2c(C)c(O)c(C)c(C)c2O1 (centres unmarked) [Compound 5],inhibition at 10 µM,100%
same,inhibition at 1 µM,100%
same,inhibition at 0.1 µM,48%
same,inhibition at 0.01 µM,24%
Cc1c(C)c2c(c(C)c1O)CC(CSc1ccccn1)O2 (centres unmarked) [Compound 7],inhibition at 10 µM,100%
same,inhibition at 1 µM,100%
same,inhibition at 0.1 µM,45%
Cc1c(C)c2c(c(C)c1O)CC(CSc1ccc(F)cc1)O2 (centres unmarked) [Compound 9],inhibition at 10 µM,100%
same,inhibition at 1 µM,100%
same,inhibition at 0.1 µM,96%
same,inhibition at 0.01 µM,8%
Cc1c(C)c2c(c(C)c1O)CC(CSc1ccc3ccccc3c1)O2 (centres unmarked) [Compound 11],inhibition at 10 µM,100%
same,inhibition at 1 µM,100%
same,inhibition at 0.1 µM,19%
Cc1c(C)c2c(c(C)c1O)CC(C[S+]([O-])c1ccccc1)O2 (centres unmarked) [Compound 13],inhibition at 10 µM,100%
same,inhibition at 1 µM,100%
same,inhibition at 0.1 µM,8%
Cc1c(C)c2c(c(C)c1O)CC(CS(=O)(=O)c1ccccc1)O2 (centres unmarked) [Compound 15],inhibition at 10 µM,100%
same,inhibition at 1 µM,100%
same,inhibition at 0.1 µM,19%
same,inhibition at 0.01 µM,10%
Cc1c(C)c2c(c(C)c1O)CC(CSCc1ccccc1)O2 (centres unmarked) [Compound 17],inhibition at 10 µM,100%
same,inhibition at 1 µM,100%
same,inhibition at 0.1 µM,88%
Cc1c(C)c2c(c(C)c1O)CC(C)(CSc1ccccc1)O2 (centres unmarked) [Compound 19],inhibition at 10 µM,100%
same,inhibition at 1 µM,99%
same,inhibition at 0.1 µM,87%
same,inhibition at 0.01 µM,-5%
Cc1c(C)c2c(c(C)c1O)CC(C)(CSc1ccc(F)cc1)O2 (centres unmarked) [Compound 21],inhibition at 10 µM,100%
same,inhibition at 1 µM,100%
same,inhibition at 0.1 µM,98%
same,inhibition at 0.01 µM,18%
Cc1c(C)c2c(c(C)c1O)CC(C)(CNCCc1ccccc1)O2 (centres unmarked) [Compound 25],inhibition at 10 µM,95%
same,inhibition at 1 µM,99%
same,inhibition at 0.1 µM,94%
same,inhibition at 0.01 µM,14%
